A short description of data set [1]: Half-life (2 mg/kg, i.v.) was determined in Sprague-Dawley rats. The data set is classed as ADME, organism-based. To be noted: rat, in vivo, iv.
Data set [2] can be described thus: Bioavailability (10 mg/kg, p.o.) in Sprague Dawley rats. To be noted: rat, in vivo, po. The data set is classed as ADME, organism-based.
Data set [3] addresses T1, Metabotropic glutamate receptor 5 (Homo sapiens, UniProt P41594). Put plainly: In vitro potency against calcium flux in Ltk cells expressing human recombinant metabotropic glutamate receptor 5 using fluorescence detection. Type of data set: cell-based. (In general: A change in cytosolic calcium serves as a functional read-out for many receptors and channels.)
Data set [4] is described as follows: Plasma clearance (2 mg/kg, i.v.) was determined in Sprague-Dawley rats. Type of data set: ADME, organism-based. To be noted: rat, iv, read-out: Clp.
The nature of data set [5]: Volume of distribution (2 mg/kg, iv.) was determined in Sprague Dawley rats; not determined. The data set is classed as ADME, organism-based. To be noted: rat, in vivo.
Data set [6] has as its system Rattus norvegicus. Description: In vivo receptor occupancy was determined in rats following intravenous dosage at 10 mg/kg. The data set is classed as functional.
Data set [7] has as its target T1, Metabotropic glutamate receptor 5. Description: In vitro potency against calcium flux in Ltk cells expressing human recombinant metabotropic glutamate receptor 5 using fluorescence detection; not active at 10 uM. Type of data set: cell-based.
The nature of data set [8]: Volume of distribution (2 mg/kg, iv.) was determined in Sprague Dawley rats. Type of data set: ADME, organism-based. To be noted: rat, in vivo.
A short description of data set [9]: Bioavailability (10 mg/kg, p.o.) was determined in Sprague Dawley rats. To be noted: rat, in vivo, po. Type of data set: ADME, organism-based.

T1 sequence (P41594 whole entry): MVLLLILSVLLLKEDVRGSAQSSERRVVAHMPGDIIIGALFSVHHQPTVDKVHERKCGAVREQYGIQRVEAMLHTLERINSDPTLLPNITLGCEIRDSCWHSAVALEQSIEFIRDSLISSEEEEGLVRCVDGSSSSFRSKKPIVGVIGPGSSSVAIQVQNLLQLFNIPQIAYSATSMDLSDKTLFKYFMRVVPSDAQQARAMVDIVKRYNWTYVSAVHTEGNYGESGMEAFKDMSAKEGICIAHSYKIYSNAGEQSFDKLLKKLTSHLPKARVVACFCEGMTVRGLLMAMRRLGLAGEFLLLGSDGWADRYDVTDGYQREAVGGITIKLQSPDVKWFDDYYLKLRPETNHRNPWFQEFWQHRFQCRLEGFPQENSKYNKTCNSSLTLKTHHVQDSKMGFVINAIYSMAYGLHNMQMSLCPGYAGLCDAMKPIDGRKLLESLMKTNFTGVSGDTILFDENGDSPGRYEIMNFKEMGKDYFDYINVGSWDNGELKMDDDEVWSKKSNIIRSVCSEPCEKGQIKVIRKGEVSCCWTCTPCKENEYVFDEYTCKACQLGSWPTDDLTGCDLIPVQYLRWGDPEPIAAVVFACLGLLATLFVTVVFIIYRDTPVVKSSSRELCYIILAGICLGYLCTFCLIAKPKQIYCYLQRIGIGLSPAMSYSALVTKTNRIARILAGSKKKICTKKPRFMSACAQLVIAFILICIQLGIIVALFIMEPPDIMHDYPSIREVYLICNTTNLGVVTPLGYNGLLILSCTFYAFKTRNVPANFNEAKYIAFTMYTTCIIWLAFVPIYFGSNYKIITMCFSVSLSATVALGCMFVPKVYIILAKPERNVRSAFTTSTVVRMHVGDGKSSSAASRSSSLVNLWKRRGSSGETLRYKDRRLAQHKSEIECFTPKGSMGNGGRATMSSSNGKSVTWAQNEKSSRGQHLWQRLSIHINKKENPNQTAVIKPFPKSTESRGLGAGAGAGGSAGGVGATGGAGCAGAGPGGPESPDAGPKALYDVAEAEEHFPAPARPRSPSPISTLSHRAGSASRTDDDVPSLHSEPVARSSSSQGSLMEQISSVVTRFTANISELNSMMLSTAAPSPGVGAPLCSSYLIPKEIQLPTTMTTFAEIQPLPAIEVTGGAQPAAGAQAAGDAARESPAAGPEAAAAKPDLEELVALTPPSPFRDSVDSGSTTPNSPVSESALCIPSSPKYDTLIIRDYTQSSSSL

In general, half-life refers to the time in which the quantity being followed falls by half. High values mean slow loss, low ones fast loss. As a reminder, the bioavailability is dose-corrected exposure relative to a reference, in per cent. Lower therefore signals little systemic uptake. The term IC50 denotes the midpoint of a concentration-inhibition curve. Compound `CCOc1cc(-c2cccnc2)cnc1Nc1cccc(C)n1` showed a half-life in data set [1] of 1 h. The same compound registered a bioavailability in data set [2] of 38%. Also, the IC50 in [3] was 12 nM. For the same compound, the clearance in data set [4] was 50 mL/min/kg.

For orientation: Vd means a proportionality between amount in the body and measured concentration, not a real space. Turning to `CCOc1cc(-c2cncnc2)cnc1Nc1cccc(C)n1`, the half-life in data set [1] was 0.6 h. For the same compound, the bioavailability in [2] turned out to be 67%. Further, the Vd in [5] was determined as 2.3 L/kg. Also, the Receptor occupancy in [6] is recorded as 79%. The IC50 in data set [3] was 36 nM. In data set [4], the clearance was found to be 79 mL/min/kg.

In the case of `Cc1cccc(Nc2ncccc2C)n1`, the half-inhibitory concentration (IC50) entry in data set [7] is “Not Active”.

In the case of `CCOc1cccnc1Nc1ccccn1`, the half-life in data set [1] is 0.8 h. In [2], this compound displayed a bioavailability of 16%. For the same compound, the Vd in [8] was 2.9 L/kg. In addition, the IC50 in data set [3] was determined as 138 nM. The clearance in data set [4] was determined as 78 mL/min/kg.

Turning to `CCOc1cccnc1Nc1cccc(C(F)(F)F)n1`, the IC50 in data set [3] was 1900 nM.

For `CCOc1cccnc1Nc1cccc(OC)n1`, the IC50 in data set [3] was 556 nM.

Regarding `CCOc1cccnc1Nc1cccc(C(=O)OC)n1`, the half-maximal inhibitory concentration (IC50) in data set [3] is 6200 nM.

For `Cc1cccc(Nc2ncccc2O)n1`, in [7], the IC50 result is given as “Not Active”.

As for `COc1cccnc1Nc1cccc(C)n1`, the IC50 in [3] is 458 nM.

On to `CCOc1ncccc1Nc1cccc(C)n1`, for which, in [7], the half-inhibitory concentration (IC50) result was “Not Active”.

Consider `Cc1cccc(Nc2ncccc2C#N)n1`, for which, in data set [7], the IC50 entry is “Not Active”.

The compound `CCOc1cc(-c2cnccc2C)cnc1Nc1cccc(C)n1` gave a half-life in [1] of 0.7 h. The bioavailability in [2] amounted to 8%. The same compound yielded a Vd in data set [5] of 4.7 L/kg. In addition, the IC50 in data set [3] worked out at 45 nM. Also, the clearance in data set [4] amounted to 105 mL/min/kg.

For `Cc1cccc(Nc2ncccc2OCc2ccccc2)n1`, the IC50 in data set [3] was 870 nM.

Turning to `CCCOc1cccnc1Nc1cccc(C)n1`, the IC50 in [3] came to 1600 nM.

Turning to `Cc1cccc(Nc2ncccc2-c2ccccc2)n1`, the IC50 entry in [7] is reported as “Not Active”.

With `CCOc1cc(C#N)cnc1Nc1cccc(C)n1`, the half-life in data set [1] is 1.6 h. Besides, in data set [2], the bioavailability stood at 13%. In addition, the Vd in data set [8] stood at 7 L/kg. Also, the half-maximal inhibitory concentration (IC50) in data set [3] is 46 nM. Besides, the clearance in data set [4] is 90 mL/min/kg.

As to `CCOc1cc(-c2ccc(C)cc2)cnc1Nc1cccc(C)n1`, the IC50 in data set [3] is 513 nM.

Consider `CCOc1cc(-c2cccnc2C#N)cnc1Nc1cccc(C)n1`, for which the IC50 in data set [3] was 80 nM.

As to `CCOc1cc(C)cnc1Nc1cccc(C)n1`, the IC50 in data set [3] is 119 nM.

As for `CCOc1ccc(C)nc1Nc1cccc(C)n1`, the IC50 entry in data set [7] is listed as “Not Active”.

As to `CCOc1cc(-c2ccccc2C#N)cnc1Nc1cccc(C)n1`, the IC50 in [3] was found to be 37 nM.

As for `CSc1cccnc1Nc1cccc(C)n1`, in [3], the IC50 is 790 nM.

Turning to `COC(=O)c1cccnc1Nc1cccc(C)n1`, in data set [7], the IC50 result is listed as “Not Active”.

`CCOc1cc(-c2ccsn2)cnc1Nc1cccc(C)n1`: the IC50 in data set [3] came to 243 nM.

As for `CCOc1ccccc1Nc1cccc(C)n1`, in [7], the IC50 entry is given as “Not Active”.

On to `CCOc1cc(Cl)cnc1Nc1cccc(C)n1`, for which the IC50 in data set [3] came out at 17 nM.

In the case of `CCNc1cccnc1Nc1cccc(C)n1`, the IC50 in data set [3] was found to be 3000 nM.

With `CCCc1cccnc1Nc1cccc(C)n1`, in [1], the half-life was 1 h. In addition, the IC50 in data set [3] came out at 394 nM. Besides, in data set [4], the clearance was 320 mL/min/kg.

On to `CCOc1c(C)ccnc1Nc1cccc(C)n1`, for which the half-maximal inhibitory concentration (IC50) in [3] worked out at 2700 nM.

`Cc1cccc(Nc2ncccc2OC(C)C)n1`: in [3], the IC50 amounted to 1000 nM.

With `CCOc1cc(-c2ccccc2)cnc1Nc1cccc(C)n1`, in [3], the IC50 turned out to be 267 nM.

Regarding `CCOc1cc(Oc2cccnc2)cnc1Nc1cccc(C)n1`, in data set [1], the half-life is 1.2 h. In data set [5], this compound had a volume of distribution (Vd) of 3.7 L/kg. Moreover, the Receptor occupancy in data set [6] is given as 82%. Besides, the IC50 in data set [3] was 18 nM. Also, the clearance in data set [4] is 52 mL/min/kg.

In the case of `CCOc1cc(-c2cccc(F)c2)cnc1Nc1cccc(C)n1`, the half-life in data set [1] was 0.5 h. In data set [2], this compound yielded a bioavailability of 19%. Moreover, in data set [8], the Vd is 3 L/kg. Further, the IC50 in data set [3] turned out to be 126 nM. The clearance in data set [4] is 93 mL/min/kg.

With `CCOc1cc(Br)cnc1Nc1cccc(C)n1`, the IC50 in [3] is 47 nM.

As for `Cc1cccc(Nc2ncccc2-c2cccnc2)n1`, in data set [7], the IC50 result is “Not Active”.

Turning to `CCOc1cc(-c2ccccn2)cnc1Nc1cccc(C)n1`, the half-life in data set [1] is 1 h. The bioavailability in data set [2] was 0%. For the same compound, in data set [8], the Vd was 6.1 L/kg. The IC50 in [3] worked out at 193 nM. Further, the clearance in data set [4] was determined as 124 mL/min/kg.

As to `CCOc1nccnc1Nc1cccc(C)n1`, in data set [1], the half-life was 1 h. For the same compound, in data set [3], the IC50 stood at 497 nM. The clearance in data set [4] was 102 mL/min/kg.

`CCOc1cccnc1Nc1cccc(C)n1` gave a bioavailability in [9] of 11%. In data set [1], this compound gave a half-life of 2.1 h. This compound came in with a Vd in data set [8] of 1.2 L/kg. For the same compound, the IC50 in data set [3] is 40 nM. In addition, in data set [4], the clearance is 16 mL/min/kg.

On to `COc1cccc(F)c1Nc1cccc(C)n1`, for which the IC50 result in [7] is “Not Active”.

Source of the values: ChEMBL document CHEMBL1141067, “Dipyridyl amines: potent metabotropic glutamate subtype 5 receptor antagonists” (Bioorg Med Chem Lett, 2005).
